The source of these data is ChEMBL document CHEMBL3804765, “One-pot synthesis and sigma receptor binding studies of novel spirocyclic-2,6-diketopiperazine derivatives” (Bioorg Med Chem Lett, 2016).

Structures are written as SMILES.

In assay [1] the target is Sigma non-opioid intracellular receptor 1 (Cavia porcellus, UniProt Q60492). Put plainly: Displacement of [3H](+)-pentazocine from Sigma1 receptor in Dunkin Hartley guinea pig brain membrane after 120 mins by liquid scintillation counting analysis. (Loss of bound radioactivity is the signal in a displacement assay; it reports binding, not function.)
A short description of assay [2]: Displacement of [3H]-DTG from Sigma2 receptor in Sprague-Dawley rat liver membrane after 150 mins by liquid scintillation counting analysis in presence of sigma1 blocker (+)-pentazocine. It is filed as cell membranes.
Assay [3] in a line: Displacement of [3H]-DTG from Sigma2 receptor in rat brain by liquid scintillation counting analysis in presence of sigma1 blocker (+)-pentazocine. It counts as tissue-based.
Assay [4] in a line: Displacement of [3H]-DTG from Sigma2 receptor in Sprague-Dawley rat liver membrane after 150 mins by liquid scintillation counting analysis in presence of sigma1 blocker AC915. It is filed as cell membranes.

Chain of Sigma non-opioid intracellular receptor 1 (Q60492 whole entry): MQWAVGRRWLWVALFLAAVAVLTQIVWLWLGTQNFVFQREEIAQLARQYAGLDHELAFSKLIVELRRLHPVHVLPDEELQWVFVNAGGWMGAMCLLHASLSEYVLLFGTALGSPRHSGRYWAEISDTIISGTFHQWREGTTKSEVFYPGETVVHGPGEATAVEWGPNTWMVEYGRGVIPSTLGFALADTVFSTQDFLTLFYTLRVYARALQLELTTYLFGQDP

On to `COc1ccc(C(=O)N2CC(=O)N(C3CCCCC3)C(=O)C23CCCC3)cc1`, for which the Ki (as a rule, a dissociation constant, usually derived from enzyme kinetics or from competition with a known ligand) in assay [1] is 429 nM; in assay [2], 98 nM.
The like results for `O=C1CN(C(=O)c2ccccc2)C2(CCN(Cc3ccccc3)CC2)C(=O)N1C1CCCCC1` were, in that order, 7.2 nM and 248 nM.
With `Cc1ccc(C(=O)N2CC(=O)N(C3CCCCC3)C(=O)C23CCN(Cc2ccccc2)CC3)cc1`, the figures for the Ki in assay [1] and in assay [2] were 11.1 nM and 134 nM, respectively.
The like results for `Cc1ccc(C(=O)N2CC(=O)N(C3CCCCC3)C(=O)C23CCCC3)cc1` were, in that order, 189 nM and 134 nM.
The like results for `CC(C)(C)C1CCC2(CC1)C(=O)N(C1CCCCC1)C(=O)CN2C(=O)c1ccccc1` (stereo unspecified) were, in that order, 7900 nM and over 10000 nM.
Turning to `COc1ccc(C(=O)N2CC(=O)N(C3CCCCC3)C(=O)C23CCN(Cc2ccccc2)CC3)cc1`, the figures for the Ki in assay [1] and in assay [2] were 5.9 nM and 563 nM, respectively.
The corresponding values for `Cc1ccc(C(=O)N2CC(=O)N(C3CCCCC3)C(=O)C23CCCCC3)cc1` are 399 nM and 2190 nM.
The like results for `O=C1CN(C(=O)c2ccccc2)C2(CCCC2)C(=O)N1C1CCCCC1` were, in that order, 79.8 nM and 118 nM.
Turning to `c1ccc(CN2CCC3(CC2)N=Nc2ccccc2N3)cc1`, the Ki in assay [3] is 4220 nM.
As to `COc1ccc(C(=O)N2CC(=O)N(C3CCCCC3)C(=O)C23CCC(C(C)(C)C)CC3)cc1` (stereo unspecified), the Ki in assay [1] is 9360 nM; in assay [2] it was over 10000 nM.
For the compound `COc1ccc(C(=O)N2CC(=O)N(C3CCCCC3)C(=O)C23CCCCC3)cc1`, the results for the Ki in assay [1] and in assay [2] were 1370 nM and 5380 nM, respectively.
The like results for `COc1ccc(C(=O)N2CC(=O)N(C3CCCCC3)C(=O)C23CCCCC3)c(OC)c1` were, in that order, 968 nM and 3170 nM.
Consider `CC(C)=CCN1CC[C@]2(C)c3cc(O)ccc3C[C@H]1[C@H]2C` [(+)-PENTAZOCINE], for which the Ki in assay [4] is 1820 nM.
`Cc1ccccc1NC(=N)Nc1ccccc1C` [DITOLYLGUANIDINE]: the Ki in assay [2] stood at 59.1 nM.
On the same count and under the same terms, the figure for `O=C(CCCN1CCC(O)(c2ccc(Cl)cc2)CC1)c1ccc(F)cc1` [HALOPERIDOL] is 54.5 nM.
